{"source": "patent US20040138272A1", "about": "“1,4-Substituted cyclohexane derivatives” (priority 2002, published 2004)", "test_system": "PC12 cells on MAG substrates", "experiment": "Bioassay of PC12 neurite growth on growth inhibitory myelin-associated glycoprotein (MAG) substrates", "type": "cell-based", "experimental": "PC-12 cells (ATCC CRL-1721) typically extend neurites in response to NGF, but when plated on inhibitory substrates, this outgrowth is inhibited and the cells remain round. We tested the ability of the new compound to grow neurites when plated on inhibitory substrates.\nWe used PC12 cells obtained from the American Type Culture Collection. PC12 cells were grown in Dulbecco's modified eagle's medium (DMEM) with 10% horse serum and 5% fetal bovine serum. To test compounds for the ability to overcome growth inhibition, PC12 cells were collected by detaching with trypsin-EDTA (0.05%), then resuspended in DMEM, 1% FBS, and 50 ng/ml nerve growth factor before plating on MAG substrates. MAG used for substrates was purified from myelin after extraction in 1% octylglucoside and separation by ion exchange chromatography (McKerracher et al. 1994, Neuron 13:805-811). Test substrates were prepared as uniform substrates in 96-well plates by drying overnight in the laminar flow hood (Nalge Nunc, Naperville, Ill.). Plates were precoated with polylysine (100 μg/ml) for 3 hours at 37° C., then washed and dried approx. 1 hour. MAG was prepared as a substrate by drying down 8 μg of protein overnight. After plating on the MAG substrate, the cells were grown at 37 C. for two days in the presence or absence of test compound (BA1003, BA1016, BA1017) to allow neurite growth. Polylysine substrates were used as a positive control. Quantitative analysis of neurite outgrowth was with the aid of Northern Eclipse software (Empix Imaging, Mississauga, Ontario). Data analysis and statistics were with Microsoft Excel.\nReferring to FIG. 4 there is shown a graph illustrative of experiments performed in triplicate testing the ability of BA-1003, BA-1016 and BA-1017 to overcome growth inhibition by MAG. PC12 cells were plated on MAG substrates alone (MAG) or MAG substrates in the presence of 0.31 uM, 3.1 um or 31 um concentrations of the test compound. The numbers of neurons that grew neurites were scored, and are shown as the percentage of neurite growth.", "note": "Entries after “also recorded” stand apart in the source; their conditions may differ."}
{"substance": "(R)-trans-4-(But-3′-en-1′-amino)-N-(4″-pyridyl)cyclohexane Carboxamide Dihydrochloride [BA-1016]", "values": [{"measurement": "neurite outgrowth on MAG substrates at the lowest concentration tested", "setting": "PC12 cells, 0.31 uM", "result": "better neurite outgrowth"}, {"measurement": "neurite outgrowth on inhibitory MAG substrates (FIG. 4)", "setting": "PC12 cells, 0.31, 3.1 or 31 uM, Dihydrochloride", "result": "can promote neurite outgrowth; also recorded: able to overcome growth inhibition by MAG"}]}
